# Reference: patent US20140193531A1, “Aqueous extracts of deschampsia antarctica” (Uxmal S.A, priority 2012, published 2014)
# Legend:
# [1] = test system: IL-6 secretion in TNFα-stimulated 3T3-L1 adipocytes; assay: TNFα-stimulated IL-6 secretion in 3T3-L1 adipocytes; format: cell-based, Mouse; conditions: data not shown
# Description: Post-differentiation, D6/D7 adipocytes were treated with test material 4 h prior to the addition of TNFα at a final concentration of 10 ng/mL. Following overnight incubation of approximately 18 h, the supernatant media were removed and assayed for IL-6. IL-6 secreted into the medium in response to TNFα stimulation was quantified using the Quantikine® Mouse IL-6 Immunoassay kit Immunoassay kit with no modifications (R&D Systems, Minneapolis, Minn.). Experiments assessing the anti-inflammatory activity of the test samples were repeated a minimum of 2 independent times. For statistical analysis, the effects of test materials IL-6 secretion were normalized, respectively, to the TNFα positive control to generate IL-6 indexes. Differences among the treatments were determined by analysis of variance and student's least significant difference test without correction for multiple comparisons; the nominal 5% probability of a type I error was used. Ninety-five percent CI were computed using the ANOVA error mean square estimate of variance (Excel®, Microsoft, Redmond, Wash.).
# HaCaT cells = format: cell-based, human
# Description: For this assay, 100,000 cells were seeded in a 24-well plate at a total volume of 500 ul in a complete culture medium. After incubating for 24 hours at 37° C. in an atmosphere of 5% CO2, the cells were irradiated with different concentrations of UV light in an irradiation system inside a type 2 biosafety laminar flow hood. The system consisted of 2 florescent tubes, one UVA-emitting 36 W PL-L (320-400 nm) and one UVB-emitting 20 W TL (290-320 nm) (Philips, Eindhoven, the Netherlands). Both tubes were located 5 cm from the bottom of the well to produce homogeneous irradiation intensity. The irradiation intensity was monitored with radiometers for UVB (Solarmeter 6.2 digital UVB radiometer, Solartech Inc., Harrison Township, Mich.) and UVA (Tecpel, CHY-732, Taiwan). The HaCaT cells were irradiated at different time intervals (Table 5) to reach the different accumulative doses of UVA and UVB (Gao et al. 2007). After irradiation with UVA+UVB light, the cells were incubated for 24 hours and the viability of the cells was measured with the MTS assay.
# In this assay, 100,000 cells were seeded in a 24-well plate. After incubating for 24 hours at 37° C. in an atmosphere of 5% de CO2, the cells were washed with PBS and incubated with AEDA doses of between 4.5 and 0.5 mg/ml previously diluted in PBS. […]
SMILES,increase of IL-6 secretion above the TNFα positive control [1],effect on irradiated keratinocytes at higher doses (HaCaT cells)
C=C[C@@]1(C)CC(=O)[C@]2(O)[C@@]3(C)[C@@H](O)CCC(C)(C)[C@@H]3[C@H](O)[C@H](OC(C)=O)[C@@]2(C)O1 [Forskolin],over 100%,
COc1cc(/C=C/C(=O)O)ccc1O [ferulic acid],,possible photocytotoxic effect
